The target in data set [1] is T1, human D4.2 receptor (Homo sapiens, UniProt P21917, DEL265-296).
T1 construct: expressed in transfected cells; host or cells: Chinese hamster ovary (CHO) cells, membranes
T1 sequence (P21917 with tags, fused parts or gaps DEL265-296): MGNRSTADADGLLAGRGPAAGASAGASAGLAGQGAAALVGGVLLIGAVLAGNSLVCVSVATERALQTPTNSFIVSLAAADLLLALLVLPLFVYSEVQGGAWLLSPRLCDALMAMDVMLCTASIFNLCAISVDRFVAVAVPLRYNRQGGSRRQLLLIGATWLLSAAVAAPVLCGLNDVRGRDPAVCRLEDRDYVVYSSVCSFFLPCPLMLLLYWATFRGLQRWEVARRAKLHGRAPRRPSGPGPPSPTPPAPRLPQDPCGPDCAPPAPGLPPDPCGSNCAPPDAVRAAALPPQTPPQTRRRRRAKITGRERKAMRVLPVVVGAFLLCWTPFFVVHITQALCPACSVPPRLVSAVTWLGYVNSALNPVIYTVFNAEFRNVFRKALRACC
The experiment in a line: Dopamine D4 receptor binding test ([3H] spiperone). The settings on record: human D4.2 receptor in CHO cell membrane; [3H] spiperone 0.5 nM; 2 hours at 27° C., pH 7.4. The method, then: 1. Dopamine D4 receptor binding test
Chinese hamster ovary (CHO) cell membrane, in which human D4.2 receptor was expressed, was used as a receptor sample.
[^3 H] Spiperone was used as a [^3 H]-labeled ligand.
The binding reaction using the [^3 H]-labeled ligand was carried out by the following method described in Eur. J. Pharmacol., 233, 173 (1993).
Human D4.2 receptor binding test: The CHO cell membrane, in which human D4.2 receptor has been expressed, [^3 H] spiperone (0.5 nM) and each test compound were allowed to undergo 2 hours of reaction at 27° C. in 50 mM Tris-HCl buffer (pH 7.4) containing 5 mM EDTA, 1.5 mM CaCl2, 5 mM KCl and 120 mM NaCl.
After completion of the reaction, the reaction solution was filtered by suction through a glass filter (GF/B), and radioactivity on the filter paper was measured using a liquid scintillation spectrometer.
The binding when the reaction was carried out in the presence of 10 μM haloperidol was defined as non-specific binding of [^3 H] spiperone, and the difference between total binding and non-specific binding was defined as specific binding. An inhibition curve was obtained by allowing a fixed concentration of [^3 H] spiperone to react with varied concentration of each compound to be tested under the aforementioned conditions, and the concentration of each test compound which inhibits 50% of the [^3 H] spiperone binding (IC50) was calculated from the inhibition curve, with the results shown in Table 3.

In data set [2] the target is Dopamine D2 receptor (Rattus norvegicus, UniProt P61169). The experiment in a line: Dopamine D2 receptor binding test ([3H] raclopride). The settings on record: rat striate body membrane; [3H] raclopride 1 nM; 1 hour at 25° C.
Chain of Dopamine D2 receptor (P61169 whole entry): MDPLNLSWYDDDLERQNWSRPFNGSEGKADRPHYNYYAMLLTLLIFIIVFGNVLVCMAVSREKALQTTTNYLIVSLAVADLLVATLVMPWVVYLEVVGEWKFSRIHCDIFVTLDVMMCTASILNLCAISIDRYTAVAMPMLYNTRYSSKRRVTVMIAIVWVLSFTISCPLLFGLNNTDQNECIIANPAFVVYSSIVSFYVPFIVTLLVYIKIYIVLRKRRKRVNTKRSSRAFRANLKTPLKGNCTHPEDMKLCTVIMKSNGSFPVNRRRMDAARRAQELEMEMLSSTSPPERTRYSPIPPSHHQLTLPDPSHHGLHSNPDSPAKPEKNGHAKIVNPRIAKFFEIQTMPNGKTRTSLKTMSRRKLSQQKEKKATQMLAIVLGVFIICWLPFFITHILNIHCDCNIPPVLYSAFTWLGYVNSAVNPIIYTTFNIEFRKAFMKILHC
For data set [3] the following is noted: literature; cited from earlier work.
For data set [4], the system named is dopamine D4 receptor. The settings on record: literature; cited from earlier work.
In data set [5] the test system is schizophrenia. The settings on record: clinical, literature, cited from earlier work.

Structures can show the parent of a compound that is named as a salt. Some results are limits rather than exact numbers.

As to `NC(=O)c1nc(-c2ccc(F)cc2)c(CCN2CCC(=Cc3cccc(F)c3)CC2)s1` [Compound A-10, 2-carbamoyl-4-(4-fluorophenyl)-5-[2-[4-(3-fluorobenzylidene)piperidin-1-yl]ethyl]thiazole], the half-maximal inhibitory concentration (IC50) – broadly, the concentration needed to halve the response being measured – in data set [1] came out at 4.53 nM; in data set [2] it was 559 nM.

Consider `NC(=O)c1nc(-c2ccc(F)cc2)c(CCN2CCC(=Cc3ccccc3)CC2)s1` [Compound A-13], for which the half-inhibitory concentration (IC50) in data set [1] stood at 3.13 nM; in data set [2] it was 143 nM.

As to `NC(=O)c1nc(-c2ccc(F)cc2)c(CCN2CCC(=Cc3ccc(F)cc3)CC2)s1` [Compound A-02], the IC50 in data set [1] was 5.46 nM; in data set [2] it was no less than 1000 nM.

With `CCOC(=O)c1nc(-c2ccc(F)cc2)c(CCN2CCC(=Cc3cccc(F)c3)CC2)s1` [Compound A-09, 2-ethoxycarbonyl-4-(4-fluorophenyl)-5-[2-[4-(3-fluorobenzylidene)piperidin-1-yl]ethyl]thiazole hydrochloride], the IC50 was 13.9 nM in data set [1] and greater than 1000 nM in data set [2].

As to `CCOC(=O)c1nc(-c2ccc(F)cc2)c(CCN2CCC(C(=O)c3ccc(F)cc3)CC2)s1` [Compound A-21], the results for the IC50 in data set [1] and in data set [2] were 3.43 nM and greater than 1000 nM, respectively.

As to `Cc1ccc(-c2nc(C(N)=O)sc2CCN2CCC(=Cc3ccc(F)cc3)CC2)cc1` [Compound A-20], the IC50 came to 9.55 nM in data set [1] and 187 nM in data set [2].

On to `O=C(O)c1nc(-c2ccc(F)cc2)c(CCN2CCC(=Cc3cccc(F)c3)CC2)s1` [Compound A-11, 2-carboxylic acid-4-(4-fluorophenyl)-5-[2-[4-(3-fluorobenzylidene)piperidin-1-yl]ethyl]thiazole potassium salt], for which the IC50 is 10.5 nM in data set [1] and no less than 1000 nM in data set [2].

Take `CN1CCN(C2=Nc3cc(Cl)ccc3Nc3ccccc32)CC1` [Clozapine]: the hemotoxicity result in data set [3] is recorded as “generates a hemotoxin as agranulocytosis which resulted in certain mortal cases”. The “affinity for dopamine D4 receptor relative to dopamine D2 receptor” value in data set [4] is “higher than its affinity for dopamine D2 receptor”. Further, the efficacy in schizophrenia entry in data set [5] is “effective in drug-resistant schizophrenia and negative symptoms”. In data set [5] (unlike dopamine D2 receptor antagonists), the extrapyramidal disorders entry is “causes less extrapyramidal disorders”.

Turning to `Cc1ccc(C=C2CCN(CCc3sc(C(N)=O)nc3-c3ccc(F)cc3)CC2)cc1` [Compound A-15], the IC50 in data set [1] was 18.3 nM; in data set [2], 433 nM.

As for `NC(=O)c1nc(-c2ccccc2)c(CCN2CCC(=Cc3ccc(F)cc3)CC2)s1` [Compound A-17], the results for the IC50 in data set [1] and in data set [2] were 5.99 nM and 628 nM, respectively.

Take `NC(=O)c1nc(-c2ccc(F)cc2)c(CCN2CCC(C(=O)c3ccc(F)cc3)CC2)s1` [Compound A-22]: the IC50 in data set [1] was 3.13 nM; in data set [2] it was 72.2 nM.

Source of the values: patent US6166033A, “2-carbonylthiazole derivatives and use of the same” (priority 1996, dated 2000).
